Experimental data reported in US20260001862A1, “QUINOXALINEDIONE AND PYRIDO[2,3-B]PYRAZINE-2,3-DIONE B CELL LYMPHOMA 6 (BCL6) DEGRADERS AND USES THEREOF” (DANA-FARBER CANCER INSTITUTE, INC., priority 2022, published 2026).

Target: T1, Endogenous BCL6 (Homo sapiens, UniProt P41182)
T1 construct: Endogenous BCL6 was tagged with the 11-amino acid SmBiT through CRISPR/Cas9 gene editing; endogenous in cells; host or cells: SU-DHL-4 (CRISPR/Cas9 knock-in single cell clone)
Test: HiBiT cellular degradation assay in SU-DHL-4 cells
Format: cell-based
Details: 24 hours of compound treatment, concentration to reach 50% degradation
Protocol: DC50 (concentration to reach 50% degradation) values were determined from a cellular degradation assay (HiBiT, Promega™) in Su-DHL-4 cells (Table 1). Endogenous BCL6 was tagged with the 11-amino acid SmBiT through CRISPR/Cas9 gene editing and single cell clone selection. After 24 hours of compound treatment, cells were lysed and incubated with LgBiT protein to reconstitute intact nanoluciferase. Substrate was then added and relative luciferase units were measured. Degradation levels for each treatment were taken as a percentage compared to the control, 100% DMSO (Prism).

Row | Structure (SMILES) | DC50 [nM]
1 | CNC(=O)CCn1c(=O)c(=O)n(C)c2ccc(Nc3nc(N4C[C@H](C)C[C@H](C)C4)ncc3Cl)cc21 [Compound 1, 3-(7-((5-chloro-2-((3S,5R)-3,5-dimethylpiperidin-1-yl)pyrimidin-4-yl)amino)-4-methyl-2,3-dioxo-3,4-dihydroquinoxalin-1(2H)-yl)-N-methylpropanamide] | 25
2 | C[C@@H]1CN(c2ncc(Cl)c(Nc3ccc4c(c3)n(CCC(=O)NC3CN(C)C3)c(=O)c(=O)n4C)n2)C[C@H](C)C1(F)F [Compound 8] | > 10000
3 | C[C@@H]1CN(c2ncc(Cl)c(Nc3ccc4c(c3)n(CCC(=O)NC3CCN(C)C3)c(=O)c(=O)n4C)n2)C[C@H](C)C1(F)F (stereo partly shown) [Compound 9] | 220
4 | C[C@@H]1CN(c2ncc(Cl)c(Nc3ccc4c(c3)n(CCC(=O)NCC3CN(C)C3)c(=O)c(=O)n4C)n2)C[C@H](C)C1(F)F [Compound 11] | 3100
5 | C[C@@H]1CN(c2ncc(Cl)c(Nc3ccc4c(c3)n(CCC(=O)NCC3CCN(C)C3)c(=O)c(=O)n4C)n2)C[C@H](C)C1(F)F (stereo partly shown) [Compound 12] | 1800
6 | C[C@@H]1CN(c2ncc(Cl)c(Nc3ccc4c(c3)n(CCC(=O)NCCN(C)C)c(=O)c(=O)n4C)n2)C[C@H](C)C1(F)F [Compound 18] | 450
7 | C[C@@H]1CN(c2ncc(Cl)c(Nc3ccc4c(c3)n(CCC(=O)NCCCN(C)C)c(=O)c(=O)n4C)n2)C[C@H](C)C1(F)F [Compound 19] | 500
8 | C[C@@H]1CN(c2ncc(Cl)c(Nc3ccc4c(c3)n(CCC(=O)NC3COC3)c(=O)c(=O)n4C)n2)C[C@H](C)C1(F)F [Compound 28] | 32
9 | C[C@@H]1CN(c2ncc(Cl)c(Nc3ccc4c(c3)n(CCC(=O)NC3CCOC3)c(=O)c(=O)n4C)n2)C[C@H](C)C1(F)F (stereo partly shown) [Compound 29] | 71
10 | C[C@@H]1CN(c2ncc(Cl)c(Nc3ccc4c(c3)n(CCC(=O)NCC3COC3)c(=O)c(=O)n4C)n2)C[C@H](C)C1(F)F [Compound 31] | 160
11 | C[C@@H]1CN(c2ncc(Cl)c(Nc3ccc4c(c3)n(CCC(=O)NCC3CCOC3)c(=O)c(=O)n4C)n2)C[C@H](C)C1(F)F (stereo partly shown) [Compound 32] | 150
12 | CNC(=O)Cn1c(=O)c(=O)n(C)c2ccc(Nc3nc(N4C[C@@H](C)C(F)(F)[C@@H](C)C4)ncc3Cl)cc21 [Compound 56, 2-(7-((5-chloro-2-((3R,5S)-4,4-difluoro-3,5-dimethylpiperidin-1-yl)pyrimidin-4-yl)amino)-4-methyl-2,3-dioxo-3,4-dihydroquinoxalin-1(2H)-yl)-N-methylacetamide] | 14
13 | C[C@@H]1CN(c2ncc(Cl)c(Nc3ccc4c(c3)n(CC(=O)NCCN(C)C)c(=O)c(=O)n4C)n2)C[C@H](C)C1(F)F [Compound 57] | 340
14 | C[C@@H]1CN(c2ncc(Cl)c(Nc3ccc4c(c3)n(CC(=O)NC3CN(C)C3)c(=O)c(=O)n4C)n2)C[C@H](C)C1(F)F [Compound 58] | 870
15 | C[C@@H]1CN(c2ncc(Cl)c(Nc3ccc4c(c3)n(CC(=O)NC3CCN(C)C3)c(=O)c(=O)n4C)n2)C[C@H](C)C1(F)F (stereo partly shown) [Compound 59] | 970
16 | C[C@@H]1CN(c2ncc(Cl)c(Nc3ccc4c(c3)n(CC(=O)NC3CCN(C)CC3)c(=O)c(=O)n4C)n2)C[C@H](C)C1(F)F [Compound 60] | 1120
17 | CNC(=O)C(C)(C)Cn1c(=O)c(=O)n(C)c2ccc(Nc3nc(N4C[C@@H](C)C(F)(F)[C@@H](C)C4)ncc3Cl)cc21 [Compound 68] | 100
18 | C[C@@H]1CN(c2ncc(Cl)c(Nc3ccc4c(c3)n(CCC(=O)NCC(C)(C)O)c(=O)c(=O)n4C)n2)C[C@H](C)C1(F)F [Compound 73] | 130
19 | CNC(=O)[C@H]1C[C@@H](n2c(=O)c(=O)n(C)c3ccc(Nc4nc(N5C[C@@H](C)C(F)(F)[C@@H](C)C5)ncc4Cl)cc32)C1 [Compound 75-1] | 290
20 | CNC(=O)[C@H]1C[C@H](n2c(=O)c(=O)n(C)c3ccc(Nc4nc(N5C[C@@H](C)C(F)(F)[C@@H](C)C5)ncc4Cl)cc32)C1 [Compound 75-2] | 100

Row | Structure (SMILES) | DC50 [nM]
21 | CNC(=O)CCn1c(=O)c(=O)n(C)c2ccc(Nc3nc(N4C[C@H](CCN)C(F)(F)[C@H](C)C4)ncc3Cl)cc21 [Compound 80] | > 10000
22 | CNC(=O)CCn1c(=O)c(=O)n(C)c2ccc(Nc3nc(N4C[C@@H](CCN)C(F)(F)[C@@H](C)C4)ncc3Cl)cc21 [Compound 81] | 250
23 | CNC(=O)CCn1c(=O)c(=O)n(C)c2ccc(Nc3nc(N4C[C@@H](C)C(F)(F)[C@@H](N)C4)ncc3Cl)cc21 [Compound 82] | 84
24 | CNC(=O)CCn1c(=O)c(=O)n(C)c2ccc(Nc3nc(N4C[C@@H](N)C(F)(F)[C@@H](C)C4)ncc3Cl)cc21 [Compound 83] | 920
25 | CNC(=O)CCn1c(=O)c(=O)n(C)c2ccc(Nc3nc(N4C[C@@H](O)C(F)(F)[C@@H](C)C4)ncc3Cl)cc21 [Compound 85] | 94
26 | CNC(=O)Cn1c(=O)c(=O)n(C)c2ccc(Nc3nc(N4C[C@@H](C)C(F)(F)[C@@H](N)C4)ncc3Cl)cc21 [Compound 86] | 120
27 | CNC(=O)Cn1c(=O)c(=O)n(C)c2ccc(Nc3nc(N4C[C@@H](N)C(F)(F)[C@@H](C)C4)ncc3Cl)cc21 [Compound 87] | 230
28 | C[C@@H]1C[C@H](C)CN(c2ncc(Cl)c(Nc3ccc4c(c3)n(CC[C@@H](C)O)c(=O)c(=O)n4C)n2)C1 [Compound 107] | 47
29 | C[C@@H]1CN(c2ncc(Cl)c(Nc3ccc4c(c3)n(C[C@H]3C[C@H](O)C3)c(=O)c(=O)n4C)n2)C[C@H](C)C1F (stereo partly shown) [Compound 108] | 43
30 | C[C@@H]1CN(c2ncc(Cl)c(Nc3ccc4c(c3)n(C[C@H]3C[C@@H](O)C3)c(=O)c(=O)n4C)n2)C[C@H](C)C1F (stereo partly shown) [Compound 109] | 4
31 | C[C@@H]1CN(c2ncc(Cl)c(Nc3ccc4c(c3)n(CCC3(O)CC3)c(=O)c(=O)n4C)n2)C[C@H](C)C1F (stereo partly shown) [Compound 110] | 18
32 | C[C@@H]1CN(c2ncc(Cl)c(Nc3ccc4c(c3)n(CCC3(O)CCC3)c(=O)c(=O)n4C)n2)C[C@H](C)C1F (stereo partly shown) [Compound 111] | 34
33 | C[C@@H]1CN(c2ncc(Cl)c(Nc3ccc4c(c3)n(CCC3(O)COC3)c(=O)c(=O)n4C)n2)C[C@H](C)C1F (stereo partly shown) [Compound 112] | 25
34 | C[C@@H]1CN(c2ncc(Cl)c(Nc3ccc4c(c3)n(C[C@@H]3CNC(=O)O3)c(=O)c(=O)n4C)n2)C[C@H](C)[C@@H]1F [Compound 117] | 130
35 | C[C@@H]1CN(c2ncc(Cl)c(Nc3ccc4c(c3)n(C[C@@H]3COC(=O)N3)c(=O)c(=O)n4C)n2)C[C@H](C)[C@@H]1F [Compound 118] | 120
36 | C[C@@H]1CN(c2nc(Nc3ccc4c(c3)n(CCC3(O)CC3)c(=O)c(=O)n4C)c(Cl)cc2C#N)C[C@H](C)[C@@H]1F [Compound 119] | 13
37 | CNC(=O)CCn1c(=O)c(=O)n(C)c2ccc(Nc3nc(N4C[C@H](CCO)C(F)(F)[C@H](C)C4)c(C#N)cc3Cl)cc21 [Compound 120] | 1900
38 | CNC(=O)CCn1c(=O)c(=O)n(C)c2ccc(Nc3nc(N4C[C@@H](CCO)C(F)(F)[C@@H](C)C4)c(C#N)cc3Cl)cc21 [Compound 121] | 71
39 | C[C@@H]1CN(c2ncc(Cl)c(Nc3ccc4c(c3)n(CC[C@@H](C)O)c(=O)c(=O)n4C)n2)C[C@H](C)[C@@H]1F [Compound 122] | 19
40 | C[C@H](O)CCn1c(=O)c(=O)n(C)c2ccc(Nc3nc(N4C[C@@H](C)[C@@H](F)[C@@H](C)C4)ncc3Cl)cc21 [Compound 123] | 23
